This note sets out measurements from PubChem BioAssay AID179 (DTP/NCI, 2004).

The structures appear in SMILES notation. Several values for one entry are separate records, joined by “and”; a condition that tells them apart may be missing. Equal entries are not always repeated. Activity calls are given as the source filed them.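 Rule for the calls: active = compounds giving half or more protection of infected cells from virus-caused growth loss, again on retest; inactive = the rest.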 A value given as a limit tells only on which side of the number the result lay.

For the assay, the system named is CEM cells HIV-1 protection, formazan growth assay. Kind of assay: NCI AIDS Antiviral Assay. The note with it: for IC50: measured here: growth of uninfected CEM cells. Put shortly:
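Human CEM cells, uninfected and HIV-1-infected, received five drug concentrations, and growth was read by soluble formazan assay. Compounds giving at least 50% protection were retested; reproducible 100% protection defined confirmed active.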

In general, EC50 refers to the concentration at which the effect is half-maximal. The IC50 is the concentration needed to halve the response being measured. Low readings indicate greater potency in that assay, high ones weaker potency in that assay. With `Cc1cn(C2CC(N)C(C(=O)NCC(=O)O)O2)c(=O)[nH]c1=O` (configuration not stated), the EC50 was over 200 µM and the IC50 is over 200 µM. On to `Cc1cc2c(=O)cc(-c3ccc(C(=O)O)cc3)oc2c(C(=O)O)c1C`, for which the result was inactive.

In the case of `Cc1ccc(Nc2nc(C)c(C(/C=C/c3ccc(/C=C/C(=N/NC(=O)C[n+]4ccccc4)c4sc(Nc5ccc(C)cc5[N+](=O)[O-])nc4C)cc3)=N\NC(=O)C[n+]3ccccc3)s2)c([N+](=O)[O-])c1`, the EC50 was over 35.5 µM and the half-maximal inhibitory concentration (IC50) was over 35.5 µM. Take `CCOC(=O)/C=C/c1cccc(OC)c1`: the EC50 is over 158 µM and the IC50 is over 158 µM. `Cc1nc(C)c(N2CCN(CN)CC2)c(=O)[nH]1`: the EC50 was over 200 µM and the IC50 was over 200 µM. As to `C=C1CN(S(=O)(=O)c2ccc(C)cc2)CCCN(Cc2ccsc2)CCCN(S(=O)(=O)c2ccc(C)cc2)C1`, the EC50 is over 200 µM and the IC50 was 52.5 µM.

Consider `Cc1[nH]c(=O)nc(N/N=C/c2ccc(Cl)cc2)c1C(=O)Nc1ccc(Cl)cc1`, for which the outcome was inactive. Consider `CC(=O)O[C@]12CCCCCCC1C1(O)C(O)CCC[C@H]12` (some centres not stated), for which the EC50 is over 200 µM and the IC50 was over 200 µM. Take `CCOC(=O)C(C(=O)OCC)C1(c2ccccc2)OC(=O)c2ccccc21` (configuration not stated): the result was inactive. For the molecule `CN(C)CCSC1=Nc2ccc(Cl)cc2C(c2ccccc2Cl)=NC1`, the EC50 is over 200 µM; the IC50 was 12.3 µM and 47.9 µM. As for `COc1ccc(C(=O)Nc2ccc(S(=O)(=O)c3ccc(NC(=O)c4ccccc4SSc4ccccc4C(=O)Nc4ccc(S(=O)(=O)c5ccc(NC(=O)c6ccc(OC)cc6)cc5)cc4)cc3)cc2)cc1`, the EC50 is 16.6 µM and the IC50 came to 151 µM. In the case of `C(=N\OCc1ccccc1)/c1ncccc1C1OCCO1`, the EC50 was over 331 µM and the IC50 came out at 309 µM. For `CNCc1cc(OC)ccc1-c1ccc(OC)c(OC)c1OC` the same measures were over 708 µM and 105 µM.

As for `CC(=O)Nc1cc2c(cc1[N+](=O)[O-])-c1cc([N+](=O)[O-])c(NC(C)=O)cc1C2=O`, the EC50 is over 200 µM and the IC50 was determined as 25.7 µM. For `N#C/C(=C\n1c(=S)[nH]c2ccc([N+](=O)[O-])cc21)c1cccc(Cl)c1` the same measures were over 200 µM and 120 µM. For `CS(=O)(=O)N(CCC#N)c1ccc(/C=C2\N=C(c3ccccc3Cl)OC2=O)cc1` the same measures were over 219 µM and over 219 µM. For `Nc1nc(N)c(N=O)c(Nc2cccc(Br)c2)n1` the same measures were over 200 µM and 8.51 µM. Turning to `C=C1CN(S(=O)(=O)c2ccc(C)cc2)CCN(Cc2ccccc2)CCN(S(=O)(=O)c2ccc(C)cc2)C1`, the EC50 was over 200 µM and the IC50 is over 200 µM.

`CC(=O)OCC1OC(OCC2OC(N3C(=S)N[C@H]([C@@H](O)[C@H](O)[C@H](O)CO)[C@H]3O)C(OC(C)=O)C(OC(C)=O)C2OC(C)=O)C(OC(C)=O)C(OC(C)=O)C1OC(C)=O` (some centres not stated): the EC50 was over 100 µM and the half-maximal inhibitory concentration (IC50) was over 100 µM. With `Cc1ccc2c(c1S)C(=O)c1ccccc1C2=O`, the EC50 is over 117 µM and the IC50 amounted to 29.5 µM. For `CN1C(=O)C2CSCN2C1=S` (configuration not stated) the same measures were over 955 µM and 316 µM.

For the molecule `CCCCCCCC/C=C\CCCCCCCC(=O)NCCN(CCN)C(=O)CCCCCCC/C=C\CCCCCCCC`, the EC50 was over 25.1 µM and the IC50 was over 25.1 µM.

On to `Clc1ccc(-c2cc(-c3cc(-c4ccc(Cl)cc4)n[nH]3)[nH]n2)cc1`, for which the EC50 is over 200 µM and the IC50 was over 200 µM.

Turning to `COC(=O)CC1C(C)(C)C(=O)C2CC3=C4CC(=O)OC(c5ccoc5)C4(C)CCC3C1(C)C2=O` (configuration not stated), the EC50 is over 55 µM and the IC50 was over 55 µM.

Consider `CCNC(=S)N/N=C(\C)c1cccc(C)n1`, for which the EC50 was over 2 µM and the IC50 came out at 1.1 µM. For `CCN(CCCl)c1cc(C[N+](C)(C)[O-])cc(NC(=O)c2ccc(C(=O)Nc3cc(C[N+](C)(C)[O-])cc(N(CC)CCCl)c3)cc2)c1`, the EC50 is over 200 µM and the IC50 stood at 36.3 µM. As to `COc1cc2ccn3c4cc(OC)c(OC)cc4cc3c2cc1OC`, the EC50 was 7.94 µM and the IC50 is 8.13 µM. For `COc1cccc(N2C(=O)c3c(c4[nH]c5ccccc5c4c4ccc(C(C)(C)C)cc34)C2=O)c1` the same measures were over 11.5 µM and over 11.5 µM. For `COC(=O)/C=C/c1c(CC=C(C)C)ncn1C` the same measures were over 537 µM and 3.47 µM. Consider `CC(C)(C)[C@H]1CCC2(OCCO2)[C@](O)(CCCO)C1`, for which the EC50 is over 200 µM and the concentration for half-maximal inhibition (IC50) is over 200 µM. With `O=C(CC(C(=O)c1ccco1)c1ccsc1)c1ccco1` (configuration not stated), the EC50 is over 200 µM and the concentration for half-maximal inhibition (IC50) was determined as 107 µM. `OCCNCCNc1c2ccccc2nc2cc(Cl)ccc12`: the outcome was inactive.

With `Cc1cc(=O)[nH]c(NNC(C#N)c2ccccc2O)n1` (configuration not stated), the EC50 is over 182 µM and the 50% inhibitory concentration (IC50) is 0.38 µM. For `Nc1nccc(CC(O)(c2ccccc2)c2ccccc2)n1` the same measures were over 64.6 µM and over 64.6 µM. For `CCOC(=O)CC1(CC(=O)OCC)C(=O)N(C)c2ccccc21` the same measures were over 200 µM and over 200 µM. For `O=C(O)c1ccccc1Sc1ccc(C=C2NC(=S)N(c3ccccc3)C2=O)s1` the same measures were over 200 µM and 97.7 µM.

As to `Nc1ncc(Sc2ccccc2C(=O)O)s1`, the EC50 was over 200 µM and the IC50 was over 200 µM. For `CSC1=C(C(=O)N(COCC[Si](C)(C)C)c2ccccc2Br)CCC(C(C)(C)C)C1` (configuration not stated), the EC50 is over 200 µM and the IC50 was found to be 17.8 µM. For `CCOC(=O)/C=C/c1ccc2c(c1)OC(c1ccc(O)c(OC)c1)C(CO)O2` (configuration not stated) the same measures were over 129 µM and 24.5 µM. For `COc1cc(N=Nc2c(O)c3ccccc3[nH]c2=O)c(OC)cc1N=Nc1ccccc1` the same measures were over 100 µM and over 100 µM. For `CCOC(=O)C(Cc1cn(C(C)=O)c2ccccc12)P(=O)(OCC)OCC` (configuration not stated) the same measures were over 200 µM and over 200 µM. With `CN1C(=O)N/C(=N/c2nc(Cc3ccc4c(c3)OCO4)cn2C)C1=O`, the EC50 is over 1.58 µM and the IC50 was over 1.58 µM. On to `COC(=O)C1=C2Nc3ccccc3C23CCN2CCC(=O)C[C@H](C1)[C@@H]23` (some centres not stated), for which the EC50 is over 107 µM and the IC50 is over 107 µM. As for `COCCCC(NC(=O)C(CC(C)C)NC(=O)OCc1ccc(OC)cc1)C(N)=O` (configuration not stated), the EC50 is over 200 µM and the IC50 turned out to be 182 µM.

Consider `CCN(CC)C1C2=C(CCCC2)OS(=O)(=O)C1c1ccccc1` (configuration not stated), for which the EC50 is over 40.7 µM and the IC50 was over 40.7 µM. For `Cc1ccc2c(c1)N=C(Nc1ccccc1)N=S2(C)=O` (configuration not stated), the result was inactive. Consider `CCOP(=O)(OCC)C1CCCOC1=O` (configuration not stated), for which the result was inactive. Same read-out and setting: with `Cc1ccc(Cc2nn(C)c(=O)n2N)cc1` the entry was “inactive”. For `CS(=O)(=O)OCCN1CCN(C(=O)c2cccc3c(Nc4ccc(S(N)(=O)=O)cc4)c4ccccc4nc23)CC1`, the EC50 is over 51.3 µM and the IC50 was over 51.3 µM. Regarding `C=CC1(C)CC(=O)C2(O)C(C)(O1)C(OC(C)=O)C(O)C1C(C)(C)CCC(O)C12C` (configuration not stated), the result was inactive.
